Assay results published in US7754694B2, “Pyrrolo[2, 1-C][1, 4]benzodiazepine-glycoside prodrug useful as a selective anti tumor agent” (priority 2007, dated 2010).

Tests used:
[1] = biological target: E. coli β-galactosidase (Escherichia coli, UniProt P00722); assay type: biochemical; conditions: in the presence of β-galactosidase, 60-90 minutes, 37° C., pH 7.2 (phosphate buffer)
Description: FIG. 1. A drawing illustrating the effect of the prodrug 1a 1 μmole was treated with 2 units of E. coli β galactosidase enzyme and the progress of the hydrolysis was monitored by reverse phase HPLC. HPLC conditions: C18 Reverse phase column. Mobile phase 40:60 CH3CN/ H2O, flow rate of 1 ml/ min. UV detection: wave length 254 nm.
The prodrug 1a 1 μmole was treated with 2 units of E. coli β galactosidase enzyme and the progress of the hydrolysis was monitored by reverse phase HPLC. The results are presented in the form of a graph as illustrated in FIG. 1. Biological Studies Of The Prodrugs

[2] = test system: HepG2 cells; experiment: Cell cycle progression by FACS (subG1 and G2/M population) in HepG2 cells; assay type: cell-based, human
Excerpt: (§1) The cytotoxic effects of the newly synthesized compounds 1a and 1b and their respective PBD imines were examined by cell cycle progression experiments on human tumor cells, by using fluorescence-activated cell sorting (FACS) analysis, in the absence and in the presence of β-galactosidase enzyme. In the primary flow cytometric study, the DNA content of the cells was used as a major determinant for cell count. The subG1 population, a conspicuous indicator for cell death, presumably apoptosis, and G2/M population was also determined in HepG2 and A375 cell lines.
Next we evaluated the prodrugs for their activation efficiency by intracellular β-galactosidase, in human liver cancer, HepG2 cells.

[3] = test system: A375 cells; experiment: Cell cycle progression by FACS (subG1 and G2/M population) in A375 cells; assay type: cell-based, human; conditions: 1a 42 μM, 1b 23.4 μM
Excerpt: as §1

Sequence of E. coli β-galactosidase (P00722 2-1024): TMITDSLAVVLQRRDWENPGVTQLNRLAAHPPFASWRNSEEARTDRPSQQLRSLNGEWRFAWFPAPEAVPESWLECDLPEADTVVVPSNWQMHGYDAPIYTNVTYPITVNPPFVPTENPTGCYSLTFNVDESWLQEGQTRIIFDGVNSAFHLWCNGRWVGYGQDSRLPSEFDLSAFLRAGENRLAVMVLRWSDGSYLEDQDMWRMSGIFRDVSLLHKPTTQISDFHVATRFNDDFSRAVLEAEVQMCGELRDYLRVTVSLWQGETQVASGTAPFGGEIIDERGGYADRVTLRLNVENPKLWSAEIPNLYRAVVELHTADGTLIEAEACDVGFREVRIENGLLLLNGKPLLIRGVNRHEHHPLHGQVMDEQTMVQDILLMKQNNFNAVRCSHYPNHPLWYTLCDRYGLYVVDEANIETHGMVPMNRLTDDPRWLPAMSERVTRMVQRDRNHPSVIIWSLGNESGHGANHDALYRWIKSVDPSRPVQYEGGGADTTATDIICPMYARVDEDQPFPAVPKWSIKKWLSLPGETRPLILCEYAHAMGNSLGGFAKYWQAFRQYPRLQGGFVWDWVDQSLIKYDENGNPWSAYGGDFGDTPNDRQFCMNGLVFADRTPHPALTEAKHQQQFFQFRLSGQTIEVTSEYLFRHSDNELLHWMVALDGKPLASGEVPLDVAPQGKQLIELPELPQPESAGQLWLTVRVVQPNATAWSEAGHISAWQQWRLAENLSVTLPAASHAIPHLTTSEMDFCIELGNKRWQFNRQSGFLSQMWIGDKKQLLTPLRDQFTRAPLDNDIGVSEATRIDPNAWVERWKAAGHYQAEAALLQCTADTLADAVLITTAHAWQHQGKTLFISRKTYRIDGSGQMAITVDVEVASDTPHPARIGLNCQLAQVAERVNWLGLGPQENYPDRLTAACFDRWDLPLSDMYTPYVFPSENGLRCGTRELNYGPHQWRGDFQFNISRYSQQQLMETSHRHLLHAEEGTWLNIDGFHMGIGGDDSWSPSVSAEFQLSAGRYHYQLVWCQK

In the case of COc1cc2c(cc1OCCCOc1cc3c(cc1OC)C(=O)N1CCC[C@H]1[C@H](O)N3C(=O)OCc1ccc(O[C@@H]3O[C@H](CO)[C@H](O)[C@H](O)[C@H]3O)c([N+](=O)[O-])c1)N(C(=O)OCc1ccc(O[C@@H]3O[C@H](CO)[C@H](O)[C@H](O)[C@H]3O)c([N+](=O)[O-])c1)[C@@H](O)[C@@H]1CCCN1C2=O [Compound 1b, 1,1′-[[(propane-1,3-diyl)dioxy]-bis(11S,11aS)-10-(4-β-D -galactopyranosyloxy-3-nitrophenyl)methoxycarbonyl-11-hydroxy-7-methoxy-1,2,3,-10,11,11a-hexahydro-5H-pyrrolo[2,1-c][1,4]-benzodiazepin-5-one]], the “activation of the prodrug by β-galactosidase” value [1] is reported as “activated to their corresponding carbinolamines”, the “cytometric profile / apoptotic response in HepG2 cells in the presence of E. coli β-galactosidase” value ([2]; HepG2, with added E. coli β-galactosidase) is reported as “profile comparable to that of the parent drug 6b” and the “cytometric profile / apoptotic response in HepG2 cells in the absence of E. coli β-galactosidase” value ([2]; HepG2, without added enzyme (intracellular β-galactosidase)) is reported as “block in the G2/M phase of the cell cycle”. For the same molecule, the “apoptosis / cell death in A375 cells with E. coli β-galactosidase” value ([3]; A375, with E. coli β-galactosidase) was “apoptosis identical to that of the parent drugs 6a and 6b respectively” and the “amount of cell death in A375 cells in the absence of the enzyme” value ([3]; A375, without β-galactosidase) was “insignificant”.
